Measurements as given in patent US11154519B2, “Inhibitors and their uses” (MEDICAL RESEARCH COUNCIL, priority 2015, dated 2021).
Values belong to the molecule of their own block, whether it stands above or below them.

Assays:
[1] = test system: HeLa cells; test: Cytoprotection against ER stress (tunicamycin), IncuCyte; type: cell-based; settings: Homo sapiens, 250 ng/ml Tunicamycin, 72 hours, compound 0-20 μM, read-out: Cytoprotection from Tm (compared to GNB)
Procedure: (§1) HeLa cells (40,000 cells/ml) were plated in a 96-well plate and treated with different concentrations (0-20 μM) of a compound as indicated in the presence of 250 ng/ml Tunicamycin for 72 hours. To monitor cell death 1/2000 dilution of the CellTox green dye (Promega) was added to the media. The growth of the cells was monitored over time and pictures taken every 2 hours with the IncuCyte ZOOM system and analysed by the IncuCyte ZOOM software (Essen BioScience). […] Cytoprotection against ER stress can be measured by a suitable assay. In this instance, cytoprotection was measured in HeLa cells in which ER stress was elicited by the addition of media containing tunicamycin, a drug that blocks N-glycosylation, thereby preventing protein folding and inducing the unfolded protein response. Cell viability was then detected in the presence and absence of a compound listed in Table 1 after a set period of time, by monitoring cell growth over time. Cytoprotection from ER stress was measured in terms of the percentage increase in viable cells (relative to control) after ER stress.

[2] = target: T1, PPP1R15A-PP1 complex (Homo sapiens, UniProt O75807); test: SPR steady-state binding to R15A-PP1 holophosphatase; settings: SPR steady-state, MBP-R15A325-636-His captured on bio-PP1c, 10° C.; read-out: R15A (KD)
T1 construct: cDNAs encoding amino acids 325-636 of PPP1R15A and 340-698 of PPP1R15B were His-tagged and cloned into pMAL-c5x; made in house; host or cells: R15A: E. coli BL21-Gold (pMAL-c5x); PP1γ: Sf9 insect cells (baculovirus, pDW464)
T1 sequence (O75807 325-636): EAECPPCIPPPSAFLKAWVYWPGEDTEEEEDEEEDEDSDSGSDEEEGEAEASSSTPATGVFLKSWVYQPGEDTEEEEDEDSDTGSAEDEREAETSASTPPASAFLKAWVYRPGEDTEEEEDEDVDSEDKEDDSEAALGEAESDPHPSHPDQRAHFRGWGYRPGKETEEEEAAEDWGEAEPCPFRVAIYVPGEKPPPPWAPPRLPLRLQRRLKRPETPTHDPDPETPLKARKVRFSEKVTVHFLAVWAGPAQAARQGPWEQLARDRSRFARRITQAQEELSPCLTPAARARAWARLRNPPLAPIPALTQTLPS
T1 sequence (P36873 whole entry partner, the tested form may be a part): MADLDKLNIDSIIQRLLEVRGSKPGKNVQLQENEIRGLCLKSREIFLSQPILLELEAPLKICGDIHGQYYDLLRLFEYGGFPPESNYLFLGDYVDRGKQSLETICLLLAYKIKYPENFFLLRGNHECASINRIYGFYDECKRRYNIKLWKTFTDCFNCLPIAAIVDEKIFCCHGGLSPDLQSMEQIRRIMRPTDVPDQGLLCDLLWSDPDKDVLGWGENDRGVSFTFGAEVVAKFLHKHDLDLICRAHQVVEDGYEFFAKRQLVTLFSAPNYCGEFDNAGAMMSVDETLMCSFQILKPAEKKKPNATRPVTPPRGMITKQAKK
Procedure: (§2) PPP1R15A^325-636 and PPP1R15B^340-698 were expressed and purified as follows: the cDNAs encoding amino acids 325-636 of PPP1R15A and 340-698 of PPP1R15B were His-tagged and cloned into pMAL-c5x. Recombinant PPP1R15A/B were expressed in BL21-Gold cells and purified by affinity chromatography on a HisTrap HP column (GE Healthcare), followed by a MBPTrap HP column (GE Healthcare). The proteins were analyzed on BOLT SDS-PAGE 4-12% Bis-Tris gels (Life Technologies) stained with SimplyBlue SafeStain (Life Technologies). cDNA encoding for human PP1γ was cloned into the baculovirus transfer vector pDW464 to add a biotin acceptor peptide (BAP). The vector also encodes for the E. coli biotin holoenzyme synthetase (BirA), so that BAP-tagged proteins can be biotinylated in vivo in Spodoptere frugiperda (Sf9) insect cells (Duffy et al., Anal. Biochem., 262, 122-128, 1998). The Bac-to-Bac baculovirus expression system (Life Technologies) was used to generate the recombinant bacmid DNA and Sf9 insect cells were used to amplify the viral stocks Cultures were harvested by centrifuging at 1,200 g for 15 minutes, cell pellets were resuspended in lysis buffer (50 mM Tris pH 7.4, 150 mM NaCl, 0.2% Triton, 5% Glycerol, 1 PiC tablet (Roche) per 50 ml and 0.2 mM PMSF) and followed by gentle sonication. The protein was first purified on a 5 ml HiTrap Q HP column (GE Healthcare) followed by a HiLoad 16/600 Superdex 200 column (GE Healthcare). The positive fractions confirmed by SDS-PAGE and western blot were pooled, concentrate to ˜1 μM and stored at −80° C.
(§3) A Biacore T200 (GE Healthcare) system was used for all experiments and biotinylated PP1 was captured using a Sensor Chip SA (GE Healthcare, catalog no BR-1005-31). The streptavidin coated surface was activated by 1 min injection with a solution of 50 mM NaOH and 1 M NaCl. Biotin-PP1 was diluted in the running buffer (50 mM Tris pH 7.5, 100 mM NaCl, 0.1 mM EGTA, 1 mM MnCl2, 0.05% Tween 20) and injected at approximately 300 nM concentration directly to streptavidin coated surface for 100 sec or to reach immobilization level of biotin-PP1 corresponding to ˜7000 RU. A blank immobilization was performed for one of the SA sensor chip surface to use as a reference.
(§4) With minor deviations, the same procedure and conditions were used in all binding experiments. Small molecules were stored as 50 mM stock solutions in 100% DMSO. Prior to determining binding constants, serial dilutions of either 12 or 8 concentrations of the compounds were prepared in the running buffer in a 96-well plate. Prior to each compound dilution series the regulatory subunit, R15A or R15B, was diluted to […] in the running buffer and captured on the biotin-PP1 surface, to form the holophosphatase complex on the sensor chip surface. Then, without regenerating the surface, the compound dilution series was injected onto the surface of the chip Sensorgrams were analyzed using the Biacore T200 evaluation software and the binding constants determined based on a steady-state model. Kinetic experiments are carried out using different concentrations of the compound and their respective equilibrium binding levels determined.
(§5) Surface Plasmon Resonance (SPR) was used to measure the binding affinity of compounds to the PPP1R15A/B-PP1 phosphatase complex. Biotin acceptor peptide (BAP) was fused to the N-terminus of PP1γ, which enables the biotinylation of the BAP-tagged protein in Sf9 insect cells. After purification the BAP-PP1γ protein was captured on a streptavidin sensor chip (SA-chip, GE healthcare) to a response level of ˜5.000 RU. Using controlled biotinylation enables orientated and uniform immobilization on the sensor chip surface. The PP1γ was then used to capture PPP1R15A/B and form a holophosphatase complex on the surface of the streptavidin chip. This complex can then be used to test binding of compounds. 10 μM PPP1R15A/B protein concentration was used to form the holophosphatase complex during a 80 s injection. […]

[3] = target: T2, PPP1R15B-PP1 (Homo sapiens, UniProt Q5SWA1); test: SPR steady-state binding to R15B-PP1 holophosphatase; settings: SPR steady-state, MBP-R15B340-698-His captured on bio-PP1c, 10° C.; read-out: R15B (KD)
T2 construct: cDNAs encoding amino acids 325-636 of PPP1R15A and 340-698 of PPP1R15B were His-tagged and cloned into pMAL-c5x; made in house; host or cells: R15B: E. coli BL21-Gold (pMAL-c5x); PP1γ: Sf9 insect cells (baculovirus, pDW464)
T2 sequence (Q5SWA1 340-698): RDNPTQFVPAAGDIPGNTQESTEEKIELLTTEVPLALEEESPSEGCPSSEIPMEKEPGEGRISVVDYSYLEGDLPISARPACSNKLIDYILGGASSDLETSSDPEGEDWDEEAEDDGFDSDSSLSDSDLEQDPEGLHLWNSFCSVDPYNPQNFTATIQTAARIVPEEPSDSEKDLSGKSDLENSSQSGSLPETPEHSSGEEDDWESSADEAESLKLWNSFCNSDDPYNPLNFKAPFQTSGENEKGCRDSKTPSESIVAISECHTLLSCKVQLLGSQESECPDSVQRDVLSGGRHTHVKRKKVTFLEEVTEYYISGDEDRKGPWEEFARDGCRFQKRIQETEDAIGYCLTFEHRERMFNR
T2 sequence (P36873 whole entry partner, the tested form may be a part): as the sequence (P36873 whole entry partner, the tested form may be a part) above
Procedure: as §2, §3, §4, §5

[4] = test system: HeLa cells; test: Cell death dose response (CellTox green, IncuCyte); type: cell-based; settings: for Effect on cell death: IncuCyte, 0-20 μM
Procedure: Toxicity of the compounds is assessed using Cell viability Counting Kit-8 (Dojindo) or in a Incucyte (Essenbioscience) using both phase contrast and IncuCyte™ Cytotox Green Reagent.
as §1
EC50 were extrapolated from dose response experiments on cell death. Data from IncuCyte was plotted and analysed in Prism. The “% of cell death” for each data point. For each concentration there is a % of cell death vs time, the area under the curve was taken and plotted against log conc=>EC50 (analysis in Prism).

[5] = test system: R15A or R15B; test: Selective binding towards R15A or R15B (based on SPR); parameters: species or system human
Procedure: In one embodiment, the compounds of formula IB inhibit PPP1R15A and PPP1R15B. Inhibition of PPP1R15A and PPP1R15B can be determined from binding analysis. For example, binding can be analysed using SPR (surface plasmon resonance) to obtain KD values. A PPP1R15A and PPP1R15B inhibitor may be defined as a compound where the difference in KD values between R15A and R15B is no more than about 3 fold.
Small molecules were stored as 50 mM stock solutions in 100% DMSO. Prior to determining binding constants, serial dilutions of either 12 or 8 concentrations of the compounds were prepared in the running buffer in a 96-well plate. Prior to each compound dilution series the regulatory subunit, MBP-R15A^325-636-His or MBP-R15B^340-698-His, was diluted to 10 μM in the running buffer and captured on the bio-PP1c surface at a flow rate of 30 μl/min for 1 minute to form the holophosphatase complex on the sensor chip surface. This was followed by 1 minute stabilization period, to wash off any unspecific binding. Then, without regenerating the surface, the compound dilution series was injected onto the surface of the chip at a flow rate of 30 μl/min for 1 minute, followed by 2 minutes dissociation time. After each dilution series the surface was regenerated using 3 M NaCl for 90 seconds. After regeneration, SPR responses generally returned to base levels and the bio-PP1c surface was ready for the next compound dilution series. In order to be able to correct for small variations in DMSO concentration between samples, eight solvent samples ranging from 0.06 to 8% DMSO were injected every 50th cycle. The flow cell temperature was 10° C.
Sensorgrams were analyzed using the Biacore T200 evaluation software and the binding constants determined based on a steady-state model. Kinetic experiments are carried out using different concentrations of the compound and their respective equilibrium binding levels determined.

[6] = target: T3, PP1 (Homo sapiens, UniProt P36873); test: SPR binding to PP1 alone; settings: SPR steady-state, bio-PP1c surface
T3 construct: made in house; host or cells: Sf9 insect cells (baculovirus, pDW464)
T3 sequence (P36873 whole entry): as the sequence (P36873 whole entry partner, the tested form may be a part) above

[7] = test system: protein synthesis; test: Assessment of translation rates (35S-methionine labelling); type: cell-based
Procedure: Cells (90,000 cells/ml) were plated in 12-well plates, treated as indicated, labelled with 100 μCi/mI 35S-methionine (Hartmann Analytic) for 10 minutes at 37° C., washed with ice-cold PBS and lysed in 120 μl Laemmli Buffer. Lysates were boiled at 95° C. for 5 minutes, sonicated and resolved on 4-12% Bolt Bis-Tris Plus Gels (Thermo Fisher Scientific). Gels were then stained with InstantBlue (Expedeon) and analyzed by phosphorimaging and quantified using ImageJ.
By monitoring translation rates as described above, the activities of R15A, R15B and R15A/B inhibitors can be defined as follows (also shown in FIG. 12). An R15A inhibitor has no effect on translation in unstressed cells but prolongs translation attenuation following stress. A selective R15B inhibitor transiently attenuate protein synthesis because R15A compensates for the inhibition of R15B.

[8] = test system: mice; test: Side effects of Guanabenz: activity of mice after dosing; type: in vivo; settings: 10 mg/kg oral gavage
Procedure: To assess whether of a compound of Example 1 had the side effects of Guanabenz, mice (n>3) were gavaged orally with 10 mg/kg of compound or Guanabenz. Their activity was monitored 30 minutes following dosing.
In humans, the adrenergic agonist activity of Guanabenz has side effects including drowsiness and coma at high doses (A. H. Hall, Ann Intern Med 102; 787-788; 1985). Due to of these side effects, Guanabenz is no longer used in human. It is anticipated that Guanabenz derivatives have the side effects of Guanabenz, associated with alpha-2 adrenergic activity.

[9] = test system: protein synthesis; settings: unstressed cells; Tsaytler et al., Science 2011; cited from earlier work

Structure (SMILES): [H]/N=C(\N)NN=Cc1cnc(Cl)nc1Cl [Compound 2, (E)-2-((2,4-dichloropyrimidin-5-yl)methylene)hydrazine-1-carboximidamide]
Emax [1]: 0%
Kd [2]: 46.4 ± 18.3 µM
Kd [3]: 9.22 µM
EC50 ([4]; Homo sapiens, area under % cell death vs time curve against log conc, read-out: Effect on cell death ⇒ EC50): 7.71 µM
Effect on cell death [4]: Yes
Selective binding towards R15A or R15B (based on SPR) [5]: R15B (A “selective inhibitor” may be defined as a compound where the difference in KD values between R15A and R15B is greater than 3 fold)

Structure (SMILES): N=C(N)N/N=C/c1cc(Cl)c(Cl)cc1Cl [Compound 4, (E)-2-(2,4,5-trichlorobenzylidene)hydrazine-1-carboximidamide]
Emax [1]: 80%
Kd [2]: 0.457 ± 0.13 µM
Kd [3]: 0.022 ± 0.02 µM
Effect on cell death [4]: No
Selective binding towards R15A or R15B (based on SPR) [5]: R15AB (A PPP1R15A and PPP1R15B inhibitor may be defined as a compound where the difference in KD values between R15A and R15B is no more than about 3 fold)
Kd [6]: 332 µM

Structure (SMILES): [H]/N=C(\N)NN=Cc1cccc(F)c1Cl [Compound 25, (E)-2-(2-chloro-3-fluorobenzylidene)hydrazine-1-carboximidamide]
Emax [1]: 54%
Kd [2]: 6.18 ± 3.31 µM
Kd [3]: 9.22 ± 0.19 µM
Effect on cell death [4]: No
Selective binding towards R15A or R15B (based on SPR) [5]: R15AB (A PPP1R15A and PPP1R15B inhibitor may be defined as a compound where the difference in KD values between R15A and R15B is no more than about 3 fold)
Kd [6]: 3.65 µM

Kd [2]: 10.6 µM
Structure (SMILES): [H]/N=C(\N)NN=Cc1ccc(F)c(F)c1Cl [Compound 27, (E)-2-(2-chloro-3,4-difluorobenzylidene)hydrazine-1-carboximidamide]
Emax [1]: 57%
Effect on cell death [4]: No
Effect on translation ⇒ Inhibits ([7]; target(s) concluded to be inhibited): R15AB

Kd [2]: 4.82 ± 0.26 µM
Kd [3]: 17.3 µM
Structure (SMILES): [H]/N=C(\N)NN=Cc1cc(F)c(F)cc1Cl [Compound 32, (E)-2-(2-chloro-4,5-difluorobenzylidene)hydrazine-1-carboximidamide]
Emax [1]: 100%
Effect on cell death [4]: No
Effect on translation ([7]; 35S-methionine labelling of cells): Persistent

Structure (SMILES): N=C(N)N/N=C/c1c(Cl)cccc1Cl [Guanabenz, reference compound]
activity of mice 30 minutes following dosing [8]: did not move 30 minutes after dosing
protein synthesis [9]: doesn't inhibit protein synthesis in untressed cells
protein synthesis rates ([7]; unstressed cells, 10 μM, FIG. 12): doesn't inhibit protein synthesis in unstressed cell
